Values quoted from earlier work as cited in patent US20130236544A1, “STABLE PHARMACEUTICAL COMPOSITIONS OF FESOTERODINE” (DR. REDDY'S LABORATORIES LTD., priority 2012, published 2013).
Structures can show the parent of a compound that is named as a salt.

solubility in water: freely soluble in water
Compound: CC(C)C(=O)Oc1ccc(CO)cc1[C@H](CCN(C(C)C)C(C)C)c1ccccc1 [Fesoterodine fumarate, isobutyric acid 2-((R)-3-diisopropylammonium-1-phenylpropyl)-4-(hydroxymethyl) phenyl ester hydrogen fumarate]
